Assay results reported in the supplement of paper PMC8837787.

Test system: Saccharomyces cerevisiae ABC16-Green Monster
Assay: growth inhibition at single dose (up to 150 µM), below the 70% cut-off for dose-response; higher = more potent
Conditions: 18 h; 30 °C; YPD
Summary of the method: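 Drug-sensitive S. cerevisiae ABC16-Green Monster cells were grown overnight in YPD at 30 °C and diluted to log phase (OD600 0.1–0.2). Each library compound was added at one dose of 150 µM to 200 µl culture per well in 96-well plates, in biological duplicates, with untreated cultures alongside. OD600 was read at 0 h and after 18 h at 30 °C. The value is percent growth inhibition; compounds below 70% in both replicates were not taken to dose-response.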

| SMILES | growth inhibition at single dose |
| --- | --- |
| Oc1ccccc1CNCC12CC3CC(CC(C3)C1)C2 | < 70% |
| O=C(Nc1ccc(F)c(Cl)c1)Nc1ccc(Cl)c(Cl)c1 | < 70% |
| COc1ccc(Br)cc1C1Nc2ccc3ccccc3c2C2=C1C(=O)CC(c1ccccc1)C2 (stereo unspecified) | < 70% |
| O=C(Cn1ncc(Cl)c(Cl)c1=O)Nc1cc(S(=O)(=O)N2CCOCC2)ccc1Cl | < 70% |
| CC(C)n1nc(-c2cc3c(Cl)cccc3[nH]2)c2c(N)ncnc21 | < 70% |
| CN(C)c1ccc(N=Cc2ccc(N3CCOCC3)cc2)cc1 | < 70% |
| O=C(NCCCN1CCC(N2CCCCC2)CC1)C1=Cc2cc(Br)ccc2OC1 | < 70% |
| COc1ccc(OC)c(NCc2ccc3nc(N)nc(N)c3c2Cl)c1 | < 70% |
| COCCn1c(C)nc2ccccc2c1=O | < 70% |
| CCOC(=O)c1ccc(Oc2nc3ccccc3nc2C(C#N)C(=O)OC)cc1 (stereo unspecified) | < 70% |
| CCCc1cc(NCCN(C)C)n2ncc(-c3ccccc3)c2n1 | < 70% |
| CC(C)NC(=O)NCc1ccc(C(=O)OCC(=O)C(C#N)=C2Nc3ccccc3N2)cc1 | < 70% |
| CC(C)c1nc2cc(NC(=O)CSc3nnnn3C3CC3)ccc2o1 | < 70% |
| O=C(C1CCN(c2cc(-n3cccc3)ncn2)CC1)N1CCc2ccccc2C1 | < 70% |
| c1ccc2cc3c(Nc4ccc(N5CCOCC5)cc4)ccnc3cc2c1 | < 70% |
| C[C@H](C(N)=O)N1CCCC[C@H]1c1ccc(OCc2cccc(F)c2)cc1 | < 70% |
| COc1ccc(C2(C(=O)Nc3ccc(Br)cc3)CCCC2)cc1 | < 70% |
| CC(C)C(Oc1cccc2ccccc12)C(=O)O (stereo unspecified) | < 70% |
| CCOC(=O)Cc1ccc(NC(=O)c2ccc(C(C)(C)C)cc2)cc1 | < 70% |
| CC(NCC(=O)N1c2ccc(S(N)(=O)=O)cc2CC1C)C1CC2CCC1C2 (stereo unspecified) | < 70% |
| CO[C@@H](C(=O)N1Cc2[nH]nc(NC(=O)c3ccc(N4CCN(C)CC4)cc3)c2C1)c1ccccc1 | < 70% |
| O=C(Nc1ncc(Cc2ccc(Br)cc2)s1)c1ccc2n[nH]nc2c1 | < 70% |
| Cc1ccc2c(c1)nc1n2CN(CCN2CCOCC2)CN1Cc1ccccc1 | < 70% |

| SMILES | growth inhibition at single dose |
| --- | --- |
| Cc1ccc2cc3c(N)c4c(C)ccc(C)c4nc3nc2c1 | < 70% |
| C=CCn1c[n+](C2=C(NS(=O)(=O)c3ccc(C)cc3)C(=O)c3ccccc3C2=O)c2ccccc21 | < 70% |
| Cc1nc(Sc2ncnc3sc4c(c23)CCC4)sc1CC(N)=O | < 70% |
| CCOC(=O)c1c[nH]c2c(F)cc(F)cc2c1=O | < 70% |
| Cc1cc(C(=O)Nc2ccc(-c3ccccc3)cc2)no1 | < 70% |
| CC(O)(c1ccc(Cl)cc1)C(CN1CCCCC1)c1ccccc1 (stereo unspecified) | < 70% |
| CCC(c1ccccc1)c1nn2c(-c3cccs3)nnc2s1 (stereo unspecified) | < 70% |
| FC(F)(F)c1cnc(Sc2nnc(-c3ccncc3)o2)c(Cl)c1 | < 70% |
| Cc1c(C)c(C)c(S(=O)(=O)N2CCN(C(C)C(=O)NC3CC3)CC2)c(C)c1C (stereo unspecified) | < 70% |
| Oc1ccc(Br)cc1CN1CCN(Cc2cccc(F)c2)CC1 | < 70% |
| Nc1ncnc2c1ncn2C[C@@H](O)[C@@H](O)C(=O)O | < 70% |
| Cc1ccc(-c2noc(CN3CCN(c4cc(C)nc(N)n4)CC3)n2)cc1 | < 70% |
| COc1ccc(NC(=O)c2ccoc2)cc1S(=O)(=O)Nc1ccc(Br)cc1 | < 70% |
| COc1ccc(N2CCN(C(CNC(=O)C3CCCCC3)c3ccc4c(c3)OCO4)CC2)cc1 (stereo unspecified) | < 70% |
| COc1cccc(C2(C)Nc3ccccc3-c3nc4ccccc4n32)c1 (stereo unspecified) | < 70% |
| Oc1ccc(Br)cc1CN1CCN(Cc2ccc(Cl)cc2)CC1 | < 70% |
| Cc1ccc(Cl)cc1N1CCN(CCCNC(=O)C2CCN(c3nc4ccccc4[nH]3)CC2)CC1 | < 70% |
| Cc1nc(NCc2ccco2)c2c(C)c(C)sc2n1 | < 70% |
| O=C(Nc1ccc([N+](=O)[O-])cc1)Nc1cccnc1Cl | < 70% |
| COc1ccc(C)c2sc(N(Cc3cccnc3)C(=O)c3ccc(C#N)cc3)nc12 | < 70% |
| O=C(NC1CCN(Cc2ccccc2)CC1)c1cc(C(=O)NC2CCN(Cc3ccccc3)CC2)cc(C(=O)NC2CCN(Cc3ccccc3)CC2)c1 | < 70% |
| O=C(Nc1ccccc1)c1ccc(CN2CCN(CCOc3ccccc3)CC2)cc1 | < 70% |
| Cc1cc(NC(=O)c2cccc(C(F)(F)F)c2)n(-c2nc(-c3ccc4c(c3)OCO4)cs2)n1 | < 70% |

| SMILES | growth inhibition at single dose |
| --- | --- |
| CCOC(=O)C1=C(c2ccccc2)N=c2sc(=Cc3cc(C)n(-c4ccc(F)cc4)c3C)c(=O)n2C1c1cccc(OC)c1OC (stereo unspecified) | < 70% |
| O=C(Nc1ccc2nc(-c3ccccc3Cl)[nH]c2c1)c1ccc(=O)[nH]n1 | < 70% |
| CC(=O)Nc1ccc(-c2noc(CC3CCCN(Cc4cccc(F)c4C)C3)n2)cc1 (stereo unspecified) | < 70% |
| CCc1nc2ccc(Cl)cn2c1C(=O)NCc1ccc(N2CCC(c3ccc(OC(F)(F)F)cc3)CC2)cc1 | < 70% |
| O=C(Nc1nnc(S)s1)c1cc(Br)ccc1Cl | < 70% |
| CNC(=O)c1ccc(CN(C2CC2)S(=O)(=O)c2ccc(C)cc2C)cc1 | < 70% |
| CCN(CC)CCCCCCNc1cc(OC)cc2c(C)ccnc12 | < 70% |
| COc1ccc(-c2cc3c(nn2)-c2ccccc2C3=O)cc1 | < 70% |
| COc1ccc(S(=O)(=O)NN(C)c2nc(C(F)(F)F)nc3ccccc23)cc1 | < 70% |
| CC(C)(C)c1cc(NC(=O)COc2ccc3[nH]c4ccccc4c(=O)c3c2)n(-c2ccccc2)n1 | < 70% |
| CCCN(CCC)CCCNC(=O)c1cc2c(-c3ccc(OC)c(OC)c3)nn(C)c2s1 | < 70% |
| CNc1nc(SCCS(=O)(=O)c2ccccc2)nc2ccccc12 | < 70% |
| Cc1ccc(CNC(=O)c2ccc(/C=C3\SC(=O)NC3=O)cc2)cc1 | < 70% |
| Cc1cc(=O)nc(N/N=C/c2c(C)nn(-c3cccc(C(F)(F)F)c3)c2Cl)[nH]1 | < 70% |
| c1ccc2c(NCc3ccc(N4CCCC4)nc3)ncnc2c1 | < 70% |
| Brc1cnc2nc(-c3ccccc3)[nH]c2c1 | < 70% |
| COC(=O)c1ccc(F)cc1NS(=O)(=O)c1cccc(-c2cnn(Cc3ccccc3)c2)c1 | < 70% |
| Cc1cc(C(=O)COc2ccc(C(N)=O)cc2)c(C)n1-c1ccc2c(c1)OCO2 | < 70% |
| COc1ccc(C(=O)Nc2ccc3nc(N4CCCCC4)cc(C)c3c2)cc1OC | < 70% |
| CS(=O)(=O)N1CCC(CCn2nc(Cc3cccc4ccccc34)c3c(N)ncnc32)CC1 | < 70% |
| COc1ccc(C2N(C)c3ccccc3N2C)cc1 | < 70% |
| Cc1[nH]c2ccccc2c1/C=N/n1c(-c2ccc(Cl)cc2Cl)cs/c1=N\CC1CCCO1 (stereo unspecified) | < 70% |
| CC1c2cccc(O)c2C(O)=C2C(=O)C3(O)C(O)=C(C(N)=O)C(=O)C(N(C)C)C3C(O)C21 (stereo unspecified) [Doxycycline] | < 70% |

| SMILES | growth inhibition at single dose |
| --- | --- |
| Cc1cc(C2=NNC(=NC3CC3)SC2)c(C)n1-c1ccccn1 | < 70% |
| Cc1c(C)n(CC(O)CNC2CCCCC2C)c2ccccc12 (stereo unspecified) | < 70% |
| COc1ccc(/C=C2\N=C(SCC(=O)O)N(Cc3ccccc3)C2=O)cc1 | < 70% |
| COc1cc(C2=NCCN2)ccc1-n1cc(-c2cccc(C3=NCCN3)c2)nn1 | < 70% |
| CCN(CC)CCn1c(NC(=O)c2cnc3c(cnn3C(C)C)c2)nc2ccccc21 | < 70% |
| O=C(Cn1ncc(Cl)c(Cl)c1=O)NCC(=O)Nc1ccc(F)c(F)c1F | < 70% |
| CC(C)C(C(=O)Nc1ccc(S(=O)(=O)N(C)C)cc1)c1ccc(Cl)cc1 (stereo unspecified) | < 70% |
| CCCc1ccc(S(=O)(=O)Nc2ccc(CN3CCN(CC4CC4)CC3)cc2)cc1 | < 70% |
| CC1CN(C(=O)c2ccc(S(=O)(=O)Nc3ccccc3F)cc2)CC(C)O1 (stereo unspecified) | < 70% |
| COc1cccc(C(=O)NC(c2ccc(C)cc2)c2cc(Cl)c3cccnc3c2O)c1 (stereo unspecified) | < 70% |
| CN(C)CCNc1cc(-c2ccccc2)nc2ccccc12 | < 70% |
| CCN(CC)S(=O)(=O)N1CCN(C(=O)c2[nH]nc3ccccc23)CC1 | < 70% |
| Brc1ccc(-[n+]2nc(-c3ccccc3)nn2-c2nn[nH]n2)cc1 | < 70% |
| CN1CCN(c2nc(Nc3ccc(O)cc3)nc3ccccc23)CC1 | < 70% |
| O=C(NC1CCCCC1)N1CCN(Cc2ccc3c(c2)OCO3)CC1 | < 70% |
| O=C(Nc1ccccc1O)c1ccc(-c2ccc(Cl)cc2Cl)o1 | < 70% |
| COc1cc2cc(C(=O)Nc3ccccc3)c(N)nc2cc1OC | < 70% |
| Cc1ccnc(NC(c2cccc(OCc3ccccc3)c2)c2ccc3cccnc3c2O)c1 (stereo unspecified) | < 70% |
| CCNC(=O)C(C)Nc1nc(-c2cccnc2)nc2sc(C)c(C)c12 (stereo unspecified) | < 70% |
| O=C(CSc1nnc(/C=C/c2ccc(F)cc2)[nH]1)N(c1ccccc1)C1CCCCC1 | < 70% |
| COc1cc(OC)c(N(C)C(=O)c2cc3c(s2)-c2ccccc2S(=O)(=O)C3)cc1Cl | < 70% |
| O=c1c2ccccc2cnn1-c1nc2ccccc2s1 | < 70% |
